Activity calls are given as the source filed them. No cut-off for these calls is given here.
What was measured:
Mus musculus [1] = species: Mus musculus; assay: Effect on central nervous system in mouse assessed as prolongation of anesthesia; format: functional
Mus musculus [2] = species: Mus musculus; assay: Effect on central nervous system in mouse assessed as tranquilizing activity; format: functional, organism-based
Mus musculus [3] = species: Mus musculus; assay: Effect on central nervous system in mouse assessed as muscle relaxant activity; format: functional, organism-based
Oryctolagus cuniculus = species: Oryctolagus cuniculus; assay: Effect on central nervous system in rabbit assessed as depression; format: functional, organism-based

**Q.** How did the LD50 (Mus musculus [1]) turn out when `COc1cc(C[C@@H]2COC(=O)[C@@]2(O)Cc2ccc(O)c(OC)c2)ccc1O` [WIKSTROMOL] was run?
**A.** 65 mg/kg

**Q.** And the Activity (Mus musculus [2])?
**A.** inactive

**Q.** What about the Activity (Mus musculus [3]) of the same compound?
**A.** inactive

**Q.** What about the Activity (Oryctolagus cuniculus) of the same compound?
**A.** Active

Reference: ChEMBL document CHEMBL1158149, “(+)-Nortrachelogenin, a new pharmacologically active lignan from Wikstroemia indica” (1979)
